Test results as given in patent publication US11447481B2, “Microbiocidal oxadiazole derivatives” (SYNGENTA PARTICIPATIONS AG, priority 2017, dated 2022).

Columns and labels:
[1] = system: Puccinia recondita f. sp. tritici; test: Fungicidal activity against Puccinia recondita f. sp. tritici / wheat / leaf disc preventative (brown rust); format: in vivo; details: foliar, wheat leaf segments, preventative (inoculated 1 day after application), compared to untreated control
Description: (§1) Leaf disks or leaf segments of various plant species are cut from plants grown in a greenhouse. The cut leaf disks or segments are placed in multiwell plates (24-well format) onto water agar. The leaf disks are sprayed with a test solution before (preventative) or after (curative) inoculation. Compounds to be tested are prepared as DMSO solutions (max. 10 mg/ml) which are diluted to the appropriate concentration with 0.025% Tween20 just before spraying. The inoculated leaf disks or segments are incubated under defined conditions (temperature, relative humidity, light, etc.) according to the respective test system. A single evaluation of disease level is carried out 3 to 14 days after inoculation, depending on the pathosystem. Percent disease control relative to the untreated check leaf disks or segments is then calculated.
(§2) Wheat leaf segments cv. Kanzler are placed on agar in multiwell plates (24-well format) and sprayed with the formulated test compound diluted in water. The leaf disks are inoculated with a spore suspension of the fungus 1 day after application. The inoculated leaf segments are incubated at 19° C. and 75% rh under a light regime of 12 h light/12 h darkness in a climate cabinet and the activity of a compound is assessed as percent disease control compared to untreated when an appropriate level of disease damage appears in untreated check leaf segments (7-9 days after application).

[2] = system: Puccinia recondita f. sp. tritici; test: Fungicidal activity against Puccinia recondita f. sp. tritici / wheat / leaf disc curative (brown rust); format: in vivo; details: foliar, 24 h, wheat leaf segments, curative (applied 1 day after inoculation), compared to untreated control
Description: as §1
as §2, with “format).” for “format) and sprayed with the formulated test compound diluted in water.”, “segments” for “disks”, “fungus. Plates are stored in darkness at 19° C. and 75% rh. The formulated test compound diluted in water is applied” for “fungus”, “inoculation.” for “application.”, “The” for “The inoculated”, “(6-8” for “(7-9”

[3] = system: Phakopsora pachyrhizi; test: Fungicidal activity against Phakopsora pachyrhizi / soybean / leaf disc preventative (Asian soybean rust); format: in vivo; details: foliar, soybean leaf disks, compared to untreated control
Description: as §1
Soybean leaf disks are placed on water agar in multiwell plates (24-well format) and sprayed with the formulated test compound diluted in water. One day after application leaf discs are inoculated by spraying a spore suspension on the lower leaf surface. After an incubation period in a climate cabinet of 24-36 hours in darkness at 20° C. and 75% rh leaf disc are kept at 20° C. with 12 h light/day and 75% rh. The activity of a compound is assessed as percent disease control compared to untreated when an appropriate level of disease damage appears in untreated check leaf disks (12-14 days after application).

[4] = system: Glomerella lagenarium (Colletotrichum lagenarium); test: Fungicidal activity against Glomerella lagenarium (Colletotrichum lagenarium) liquid culture / cucumber / preventative (anthracnose); format: cell-based; details: Colletotrichum orbiculare, liquid culture (PDB), growth inhibition measured photometrically 3-4 days after application, compared to untreated control
Description: Mycelia fragments or conidia suspensions of a fungus prepared either freshly from liquid cultures of the fungus or from cryogenic storage, are directly mixed into nutrient broth. DMSO solutions of the test compound (max. 10 mg/ml) are diluted with 0.025% Tween20 by a factor of 50 and 10 µl of this solution is pipetted into a microtiter plate (96-well format). The nutrient broth containing the fungal spores/mycelia fragments is then added to give an end concentration of the tested compound. The test plates are incubated in the dark at 24° C. and 96% relative humidity. The inhibition of fungal growth is determined photometrically after 2 to 7 days, depending on the pathosystem, and percent antifungal activity relative to the untreated check is calculated.
Conidia of the fungus from cryogenic storage are directly mixed into nutrient broth (PDB potato dextrose broth). After placing a (DMSO) solution of test compound into a microtiter plate (96-well format), the nutrient broth containing the fungal spores is added. The test plates are incubated at 24° C. and the inhibition of growth is measured photometrically 3-4 days after application.

Row | Compound | pest or weed control at 200 ppm [1] | pest or weed control at 200 ppm [2] | pest or weed control at 200 ppm [3] | inhibition of growth at 20 ppm [4] | melting point
1 | Cc1nn(Cc2ccc(-c3noc(C(F)(F)F)n3)cc2)c(=O)o1 [Compound B-3, 5-methyl-3-[[4-[5-(trifluoromethyl)-1,2,4-oxadiazol-3-yl]phenyl]methyl]-1,3,4-oxadiazol-2-one] | ≥ 80% | ≥ 80% | ≥ 80% | ≥ 80% | 133.8 to 136 °C
2 | CC(=O)n1ccc(=O)n1Cc1ccc(-c2noc(C(F)(F)F)n2)cc1 [Compound A-2, 1-acetyl-2-[[4-[5-(trifluoromethyl)-1,2,4-oxadiazol-3-yl]phenyl]methyl]pyrazol-3-one] | ≥ 80% | ≥ 80% | ≥ 80% | ≥ 80% | 
3 | Cn1nnn(CCc2ccc(-c3noc(C(F)(F)F)n3)cc2)c1=O [Compound D-1, 1-methyl-4-[2-[4-[5-(trifluoromethyl)-1,2,4-oxadiazol-3-yl]phenyl]ethyl]tetrazol-5-one] | ≥ 80% | ≥ 80% | ≥ 80% | ≥ 80% | 92 to 94 °C
4 | O=c1ccccn1Cc1ccc(-c2noc(C(F)(F)F)n2)c(F)c1F [Compound C-12, 1-[[2,3-difluoro-4-[5-(trifluoromethyl)-1,2,4-oxadiazol-3-yl]phenyl]methyl]pyridin-2-one] | ≥ 80% | ≥ 80% | ≥ 80% | ≥ 80% | 154 to 156 °C
5 | O=c1ccc(C(F)(F)F)cn1Cc1ccc(-c2noc(C(F)(F)F)n2)cc1 [Compound C-9, 5-(trifluoromethyl)-1-[[4-[5-(trifluoromethyl)-1,2,4-oxadiazol-3-yl]phenyl]methyl]pyridin-2-one] | ≥ 80% | ≥ 80% | ≥ 80% | ≥ 80% | 131 to 133 °C
6 | Cc1ccn(C(C)c2ccc(-c3noc(C(F)(F)F)n3)cc2)c(=O)c1 (centres unmarked) [Compound C-1] | ≥ 80% | ≥ 80% | ≥ 80% | ≥ 80% | 117 to 120 °C
7 | N#Cc1cccn(Cc2ccc(-c3noc(C(F)(F)F)n3)cc2)c1=O [Compound C-7, 2-oxo-1-[[4-[5-(trifluoromethyly)-1,2,4-oxadiazol-3-yl]phenyl]methyl]pyridine-3-carbonitrile] | ≥ 80% | ≥ 80% | ≥ 80% | ≥ 80% | 178 to 180 °C
8 | O=C1OCC(c2ccc(Cl)cc2Cl)=NN1Cc1ccc(-c2noc(C(F)(F)F)n2)cc1 [Compound E-1, 5-(2,4-dichlorophenyl)-3-[[4-[5-(trifluoromethyl)-1,2,4-oxadiazol-3-yl]phenyl]methyl]-6H-1,3,4-oxadiazin-2-one] |  |  |  |  | 139.5 to 140 °C
9 | Cn1nc(Cl)n(-c2ccc(-c3noc(C(F)(F)F)n3)cc2)c1=O [Compound F-1, 5-chloro-2-methyl-4-[4-[5-(trifluoromethyl)-1,2,4-oxadiazol-3-yl]phenyl]-1,2,4-triazol-3-one] | ≥ 80% |  |  | ≥ 80% | 161 to 167 °C
10 | CC(c1ccc(-c2noc(C(F)(F)F)n2)cc1)n1nnn(C)c1=O (centres unmarked) [Compound B-1, 1-methyl-4-[1-[4-[5-(trifluoromethyl)-1,2,4-oxadiazol-3-yl]phenyl]ethyl]tetrazol-5-one] | ≥ 80% | ≥ 80% | ≥ 80% | ≥ 80% | 
11 | Cc1cccc(=O)n1Cc1cc(F)c(-c2noc(C(F)(F)F)n2)cc1F [Compound C-15, 1-[[2,5-difiuoro-4-[5-(trifluoromethyl)-1,2,4-oxadiazol-3-yl]phenyl]methyl]-6-methyl-pyridin-2-one] | ≥ 80% | ≥ 80% | ≥ 80% | ≥ 80% | 
12 | O=c1sc(-c2ccccc2)nn1Cc1ccc(-c2noc(C(F)(F)F)n2)cc1 [Compound B-2, 5-phenyl-3-[[4-[5-(trifluoromethyl)-1,2,4-oxadiazol-3-yl]phenyl]methyl]-1,3,4-thiadiazol-2-one] |  |  |  | ≥ 80% | 111.1 to 114 °C
13 | Cn1nnn(Cc2ccc(-c3noc(C(F)(F)F)n3)c(F)c2)c1=O [Compound B-5, 1-[[3-fluoro-4-[5-(trifluoromethyl)-1,2,4-oxadiazol-3-yl]phenyl]methyl]-4-methyl-tetrazol-5-one] | ≥ 80% | ≥ 80% | ≥ 80% | ≥ 80% | 
14 | CC1=CC(C)C(=O)N1Cc1ccc(-c2noc(C(F)(F)F)n2)cc1 (centres unmarked) [Compound B-7, 3,5-dimethyl-1-[[4-[5-(trifluoromethyl)-1,2,4-oxadiazol-3-yl]phenyl]methyl]-3H-pyrrol-2-one] | ≥ 80% |  | ≥ 80% | ≥ 80% | 
15 | Cc1cccc(=O)n1C(C)c1ccc(-c2noc(C(F)(F)F)n2)cc1 (centres unmarked) [Compound C-16, 6-methyl-1-[1-[4-[5-(trifluoromethyl)-1,2,4-oxadiazol-3-yl]phenyl]ethyl]pyridin-2-one] | ≥ 80% | ≥ 80% |  | ≥ 80% | 
16 | Cc1cccc(=O)n1Cc1cc(F)c(-c2noc(C(F)(F)F)n2)c(F)c1 [Compound C-17, 1-[[3,5-difluoro-4-[5-(trifluoromethyl)-1,2,4-oxadiazol-3-yl]phenyl]methyl]-6-methyl-pyridin-2-one] | ≥ 80% | ≥ 80% |  | ≥ 80% | 
17 | Cc1cc(C)n(Cc2ccc(-c3noc(C(F)(F)F)n3)cc2)c(=O)c1 [Compound C-3, 4,6-dimethyl-1-[[4-[5-(trifluoromethyl)-1,2,4-oxadiazol-3-yl]phenyl]methyl]pyridin-2-one] |  | ≥ 80% |  |  | 
18 | O=c1ccn(-c2ccc(Cl)cc2)n1Cc1ccc(-c2noc(C(F)(F)F)n2)cc1 [Compound A-4, 1-(4-chlorophenyl)-2-[[4-[5-(trifluoromethyl)-1,2,4-oxadiazol-3-yl]phenyl]methyl]pyrazol-3-one] | ≥ 80% |  | ≥ 80% |  | 
19 | O=S1(=O)C=CCN1Cc1ccc(-c2noc(C(F)(F)F)n2)cc1 [Compound A-1, 2-[[4-[5-(trifluoromethyl)-1,2,4-oxadiazol-3-yl]phenyl]methyl]-3H-isothiazole 1,1-dioxide] | ≥ 80% | ≥ 80% | ≥ 80% | ≥ 80% | 
20 | COc1c(-c2c(C)cc(C)cc2C)c(=O)n(Cc2ccc(-c3noc(C(F)(F)F)n3)cc2)n1C [Compound A-3, 5-methoxy-1-methyl-2-[[4-[5-(trifluoromethyl)-1,2,4-oxadiazol-3-yl]phenyl]methyl]-4-(2,4,6-trimethylphenyl)pyrazol-3-one] |  |  | ≥ 80% | ≥ 80% | 
21 | Cc1ccn(CCc2ccc(-c3noc(C(F)(F)F)n3)cc2)c(=O)c1 [Compound C-18, 4-methyl-1-[2-[4-[5-(trifluoromethyl)-1,2,4-oxadiazol-3-yl]phenyl]ethyl]pyridin-2-one] | ≥ 80% | ≥ 80% |  | ≥ 80% | 146 to 148 °C
